Converted amounts (≈) assume the structure as drawn.
Experiments:
[1] = Stability of entrapped Doxycycline during hydration in FBS solution at 37° C.; type: physicochemical; conditions: after hydration for 21 days, matrix: released+reservoir
Description: Doxycycline is known to degenerate under hydrating conditions. The matrix composition of the present invention can protect Doxycycline from this degradation. The stability of the entrapped Doxycycline during the hydration of the matrix composition (in FBS solution at 37° C.) was tested. At each time point two parameters were tested: 1) Doxycycline molecules released from the medical device of the invention and 2) Doxycycline molecules reservoir in the medical device of the invention. The latter was extracted from the formulation using methylene chloride. The sum of the two Doxycycline quantities represents the overall quantity of Doxycycline in the product at each time point. Free Doxycycline, incubated under the same conditions, was used as control. Results are plotted in FIG. 3.

[2] = system: Staphylococcus aureus (ATCC 25923); assay: Antibacterial activity of Doxycycline released from coated bone particles; type: cell-based; conditions: ATCC25923, released at different time points over 30 days following hydration
Description: The antibacterial activity against Staphylococcus aureus (ATCC 25923), of Doxycycline that was released from bone particles coated with the matrix composition of the invention was followed for a period of 30 days following its hydration (FIG. 4). The MIC (Minimal Inhibitory Concentration) for Doxycycline that was released from the matrix composition at different time points was calculated to be ˜1 μg/ml, and MIC 50 (the concentration that inhibits 50% growth) was ˜0.1 μg/ml, values that were similar to the control free Doxycycline.

S. aureus = conditions: Shaarei-Zedek Jerusalem Medical Center Database; cited from earlier work

Compound	overall doxycycline remaining intact, of the initial dose [1]	MIC50 ([2]; read-out: MIC 50 (the concentration that inhibits 50% growth))	MIC ([2]; read-out: MIC (Minimal Inhibitory Concentration))	isolated S. aureus sub species in the clinic resistant to the antibiotic (S. aureus)
C[C@H]1c2cccc(O)c2C(=O)C2=C(O)[C@]3(O)C(=O)C(C(N)=O)=C(O)[C@@H](N(C)C)[C@@H]3[C@@H](O)[C@@H]21 [free Doxycycline, Doxycycline]	20%	~0.1 µg/mL (≈ 0.225 µM)	~1 µg/mL (≈ 2.25 µM)	–
gentamicin	–	–	–	30-40%
penicillin	–	–	–	more than 50%

Source: US9173976B2, “Compositions and methods for the treatment of bone voids and open fractures” (POLYPID LTD., priority 2012, dated 2015)
